Assay results reported in the supplement of paper PMC10307832.

Key:
Assay in all cases: relative viability (nuclei count vs DMSO), 5 days (fraction); higher = more cells survive
[1] = compound: COc1cc2nc(N3CCCN(C)CC3)nc(NC3CCN(Cc4ccccc4)CC3)c2cc1OC + CC(=O)Nc1cccc(-n2c(=O)n(C3CC3)c(=O)c3c(Nc4ccc(I)cc4F)n(C)c(=O)c(C)c32)c1 [Trametinib] (partner 0.02 µM)
In short: (§1)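 Lung cancer cell lines in 1536-well plates got either a single drug or a fixed anchor-drug dose together with five library-drug doses (not always all listed) in √10 steps, by pin tool, on the day after seeding. Nuclei were counted after 5 days, and relative viability is the treated-to-vehicle ratio of nuclei counts. Values are medians of duplicate plates.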

[2] = compound: COc1cc2nc(N3CCCN(C)CC3)nc(NC3CCN(Cc4ccccc4)CC3)c2cc1OC + CC(=O)c1c(C)c2cnc(Nc3ccc(N4CCNCC4)cn3)nc2n(C2CCCC2)c1=O [Palbociclib] (partner 0.5 µM)
In short: as §1

[3] = compound: COc1cc2nc(N3CCCN(C)CC3)nc(NC3CCN(Cc4ccccc4)CC3)c2cc1OC + CC1(C)CCC(c2ccc(Cl)cc2)=C(CN2CCN(c3ccc(C(=O)NS(=O)(=O)c4ccc(N[C@H](CCN5CCOCC5)CSc5ccccc5)c(S(=O)(=O)C(F)(F)F)c4)cc3)CC2)C1 [Navitoclax] (partner 0.5 µM)
In short: as §1

[4] = compound: COc1cc2nc(N3CCCN(C)CC3)nc(NC3CCN(Cc4ccccc4)CC3)c2cc1OC + C[C@]1(O)C[C@@H](c2nc(-c3ccc4ccc(-c5ccccc5)nc4c3)c3c(N)nccn32)C1 [Linsitinib] (partner 1 µM)
In short: as §1

[5] = compound: COc1cc2nc(N3CCCN(C)CC3)nc(NC3CCN(Cc4ccccc4)CC3)c2cc1OC + Cc1nc(Nc2ncc(C(=O)Nc3c(C)cccc3Cl)s2)cc(N2CCN(CCO)CC2)n1 [Dasatinib] (partner 0.075 µM)
In short: as §1

Cell Line | relative viability ([1]; first compound 0.2 µM) | relative viability ([1]; first compound 0.6325 µM) | relative viability ([1]; first compound 2 µM) | relative viability ([1]; first compound 6.325 µM) | relative viability ([2]; first compound 0.2 µM) | relative viability ([2]; first compound 0.6325 µM) | relative viability ([2]; first compound 2 µM) | relative viability ([2]; first compound 6.325 µM) | relative viability ([3]; first compound 0.2 µM) | relative viability ([3]; first compound 0.6325 µM) | relative viability ([3]; first compound 2 µM) | relative viability ([3]; first compound 6.325 µM) | relative viability ([4]; first compound 0.2 µM) | relative viability ([4]; first compound 0.6325 µM) | relative viability ([4]; first compound 2 µM) | relative viability ([4]; first compound 6.325 µM) | relative viability ([5]; first compound 0.2 µM) | relative viability ([5]; first compound 0.6325 µM) | relative viability ([5]; first compound 2 µM) | relative viability ([5]; first compound 6.325 µM)
NCI-H1975 | 0.369 | 0.41 | 0.346 | 0.322 | 0.567 | 0.603 | 0.826 | 0.586 | 1.2 | 1.18 | 1.21 | 1.05 | 0.989 | 1.02 | 1.11 | 0.905 | 0.342 | 0.438 | 0.464 | 0.287
NCI-H1993 | 0.497 | 0.485 | 0.414 | 0.589 | 0.582 | 0.721 | 0.77 | 0.748 | 0.919 | 0.97 | 1.04 | 0.991 | 0.728 | 0.723 | 0.676 | 0.765 | 0.568 | 0.657 | 0.657 | 0.574
NCI-H2009 | 0.277 | 0.305 | 0.323 | 0.289 | 0.222 | 0.253 | 0.413 | 0.24 | 1.22 | 1.17 | 1.2 | 1.15 | 1.24 | 1.16 | 1.24 | 1.24 | 0.308 | 0.324 | 0.493 | 0.296
NCI-H2023 | 0.598 | 0.577 | 0.501 | 0.116 | 0.379 | 0.337 | 0.4 | 0.0878 | 1.02 | 1.01 | 1.03 | 0.616 | 0.767 | 0.643 | 0.7 | 0.405 | 0.57 | 0.558 | 0.56 | 0.237
NCI-H2085 | 0.504 | 0.504 | 0.612 | 0.525 | 0.455 | 0.484 | 0.5 | 0.458 | 1.03 | 1.12 | 1.27 | 0.981 | 0.9 | 0.917 | 0.956 | 0.84 | 0.217 | 0.306 | 0.262 | 0.206
NCI-H2087 | 0.244 | 0.215 | 0.144 | 0.206 | 0.233 | 0.201 | 0.219 | 0.215 | 1.06 | 0.933 | 1.28 | 0.854 | 0.908 | 0.706 | 1.05 | 0.899 | 0.7 | 0.75 | 0.941 | 0.617
NCI-H2126 | 0.532 | 0.572 | 0.513 | 0.508 | 0.373 | 0.325 | 0.367 | 0.328 | 0.847 | 0.777 | 0.804 | 0.81 | 0.69 | 0.707 | 0.724 | 0.708 | 0.583 | 0.678 | 0.597 | 0.502
NCI-H2228 | 0.561 | 0.565 | 0.403 | 0.395 | 0.63 | 0.808 | 0.835 | 0.509 | 0.703 | 0.742 | 0.797 | 0.415 | 0.59 | 0.587 | 0.83 | 0.476 | 0.514 | 0.488 | 0.496 | 0.243
NCI-H2347 | 0.275 | 0.299 | 0.271 | 0.377 | 0.46 | 0.433 | 0.385 | 0.422 | 0.764 | 0.771 | 0.873 | 0.693 | 0.936 | 0.927 | 0.882 | 0.922 | 0.36 | 0.339 | 0.304 | 0.274
NCI-H2405 | 0.652 | 0.604 | 0.676 | 0.591 | 0.554 | 0.493 | 0.522 | 0.514 | 0.829 | 0.826 | 0.84 | 0.728 | 0.934 | 0.975 | 0.979 | 0.809 | 0.213 | 0.214 | 0.2 | 0.202
NCI-H3122 | 0.239 | 0.199 | 0.197 | 0.208 | 0.207 | 0.21 | 0.216 | 0.209 | 1.01 | 1.02 | 1.05 | 0.992 | 1.01 | 1.01 | 1.03 | 1.06 | 0.969 | 0.763 | 0.894 | 0.765
PC-3 [JPC-3] | 0.641 | 0.761 | 0.745 | 0.507 | 0.542 | 0.591 | 0.578 | 0.468 | 0.89 | 0.815 | 0.775 | 0.741 | 1 | 0.931 | 1.01 | 0.903 | 0.954 | 0.908 | 1.08 | 1
PC-14 | 0.707 | 0.648 | 0.806 | 0.0693 | 0.536 | 0.477 | 0.446 | 0.0369 | 1 | 0.93 | 1.14 | 0.882 | 0.923 | 0.91 | 1.02 | 0.865 | 0.236 | 0.277 | 0.197 | 0.0162
RERF-LC-KJ | 0.829 | 0.862 | 0.928 | 0.803 | 0.982 | 1.11 | 1.13 | 0.909 | 0.94 | 0.884 | 0.926 | 0.72 | 0.883 | 0.856 | 0.894 | 0.886 | 0.805 | 0.812 | 1.01 | 0.567
SK-LU-1 | 0.554 | 0.541 | 0.516 | 0.459 | 0.409 | 0.353 | 0.394 | 0.375 | 1.06 | 1 | 1.2 | 0.461 | 0.996 | 1.07 | 0.886 | 0.724 | 0.21 | 0.159 | 0.206 | 0.119
SK-MES-1 | 0.597 | 0.56 | 0.599 | 0.471 | 0.319 | 0.304 | 0.295 | 0.106 | 1.14 | 1.24 | 1.36 | 0.999 | 1 | 1 | 1.08 | 1.01 | 0.41 | 0.374 | 0.386 | 0.171
SW 1573 | 0.446 | 0.518 | 0.572 | 0.368 | 0.365 | 0.417 | 0.377 | 0.196 | 0.941 | 0.868 | 1.08 | 0.755 | 0.74 | 0.806 | 0.768 | 0.758 | 0.453 | 0.454 | 0.665 | 0.295
UMC-11 | 0.741 | 0.729 | 0.836 | 0.517 | 0.374 | 0.389 | 0.317 | 0.259 | 0.315 | 0.333 | 0.317 | 0.254 | 1.03 | 1.03 | 1.05 | 1.04 | 0.464 | 0.435 | 0.468 | 0.286
